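Step 1: Grow cells in 96-well plates. Step 2: Expose to compound for 48 hours at 5 concentrations. Step 3: Interpolate endpoints linearly; if unreached, use highest concentration. GI50 = concentration required for 50% inhibition of growth.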 Calls of active or inactive are those of the source. No stated cut-off is given here; in the data, active = GI50 up to about 1.1 µM and inactive = higher.
Experiments:
Assay in all cases: growth of human tumour cells (NCI), 48 h
[1] = tested on: RPMI-8226
[2] = tested on: HL-60
[3] = tested on: HT-29
[4] = tested on: PC-3
[5] = tested on: HCT-116
[6] = tested on: KM12
[7] = tested on: SK-MEL-2
[8] = tested on: MOLT-4
[9] = tested on: OVCAR-8
[10] = tested on: SNB-75
[11] = tested on: MDA-MB-231
[12] = tested on: LOX IMVI
[13] = tested on: OVCAR-5
[14] = tested on: IGROV-1
[15] = tested on: UACC-62
[16] = tested on: UO-31
[17] = tested on: ACHN
[18] = tested on: MDA-N
[19] = tested on: NCI-H226
[20] = tested on: NCI-H23

Row | SMILES | GI50 [1] | GI50 [2] | GI50 [3] | GI50 [4] | GI50 [5] | GI50 [6] | GI50 [7] | GI50 [8] | GI50 [9] | GI50 [10] | GI50 [11] | GI50 [12] | GI50 [13] | GI50 [14] | GI50 [15] | GI50 [16] | GI50 [17] | GI50 [18] | GI50 [19] | GI50 [20]
1 | CCOC(=O)c1cc([N+](=O)[O-])cc([N+](=O)[O-])c1Sc1[nH]cnc2ncnc1-2 | 1.65 µM (inactive) | 1.94 µM (inactive) | 2.37 µM (inactive) | 3.73 µM (inactive) | 2.12 µM (inactive) | 5.25 µM (inactive) | 2.93 µM (inactive) | 1.24 µM (inactive) | 1.93 µM (inactive) | 10.3 µM (inactive) | 7.01 µM (inactive) | 0.454 µM (active) | 9.71 µM (inactive) | 2.31 µM (inactive) | 4.5 µM (inactive) | 1.75 µM (inactive) | 1.96 µM (inactive) | 1.82 µM (inactive) | 24.1 µM (inactive) | 
2 | O=c1cnn(C/C=C/CBr)c(=O)[nH]1 | 5.48 µM (inactive) | 8.47 µM (inactive) | 13.8 µM (inactive) | 14.9 µM (inactive) |  | 17.5 µM (inactive) | 17.1 µM (inactive) | 19.6 µM (inactive) | 23.1 µM (inactive) | 18.8 µM (inactive) | 21.9 µM (inactive) | 16.1 µM (inactive) | 17.4 µM (inactive) | 16.2 µM (inactive) |  | 14.1 µM (inactive) | 16.7 µM (inactive) | 14.7 µM (inactive) | 17 µM (inactive) | 
3 | Cc1cc(NS(=O)(=O)c2ccc(NC(=O)c3ccc4nc5ccccc5c(Nc5ccc(S(N)(=O)=O)cc5)c4c3)cc2)no1 | 24.7 µM (inactive) | 22.7 µM (inactive) | 28.6 µM (inactive) | 32.3 µM (inactive) | 24.8 µM (inactive) | 22.9 µM (inactive) | 23.9 µM (inactive) | 22.3 µM (inactive) | 24.6 µM (inactive) | 38.2 µM (inactive) | 24 µM (inactive) | 13.6 µM (inactive) | 27 µM (inactive) | 33.4 µM (inactive) | 29.7 µM (inactive) | 20.1 µM (inactive) | 21.3 µM (inactive) | 25.6 µM (inactive) | > 100 µM (inactive) | 33 µM (inactive)
4 | CCn1c2ccc(C(=O)CCCN(C)C)cc2c2cc(C(=O)CCCN(C)C)ccc21 | 1.77 µM (inactive) | 1.75 µM (inactive) | 0.509 µM (active) | 1.3 µM (inactive) | 0.593 µM (active) | 1.18 µM (inactive) | 2.25 µM (inactive) | 0.256 µM (active) | 0.533 µM (active) | 2.97 µM (inactive) | 0.851 µM (active) | 1.12 µM (active) | 1.79 µM (inactive) | 0.889 µM (active) | 7.59 µM (inactive) | 3.48 µM (inactive) | 0.759 µM (active) | 2.05 µM (inactive) | 2.74 µM (inactive) | 1.61 µM (inactive)
5 | Nc1c(/C=C/c2cc3cc(C4=NCCN4)ccc3o2)[nH]c2cc(C3=NCCN3)ccc12 | 39 µM (inactive) | 29.6 µM (inactive) | 34.3 µM (inactive) | 34.6 µM (inactive) | 29.4 µM (inactive) | 34.4 µM (inactive) | > 100 µM (inactive) | 28.9 µM (inactive) | 38.9 µM (inactive) | 63.5 µM (inactive) | 34.1 µM (inactive) | 38.8 µM (inactive) | > 100 µM (inactive) | 39.1 µM (inactive) | 38 µM (inactive) | 40.6 µM (inactive) | 47.1 µM (inactive) | 37.8 µM (inactive) | > 100 µM (inactive) | 60.7 µM (inactive)
6 | CC(C)(C)C1CCC2c3c([nH]c4ccccc34)C3C(=O)N(c4cccc(Cl)c4)C(=O)C3C2C1 (centres undefined) | 9.27 µM (inactive) | 3.01 µM (inactive) | 6.38 µM (inactive) | 7.1 µM (inactive) | 6.3 µM (inactive) | 5.01 µM (inactive) | 17 µM (inactive) | 1.85 µM (inactive) | 17.7 µM (inactive) | 14.1 µM (inactive) | 14.2 µM (inactive) | 7.48 µM (inactive) | 13.5 µM (inactive) | 13.8 µM (inactive) | 12.9 µM (inactive) | 9.12 µM (inactive) | 9.33 µM (inactive) | 11 µM (inactive) | 19 µM (inactive) | 8.49 µM (inactive)
7 | COC(=O)c1ccc2c(c1)CC1(C2)Cc2cc3c(cc2C1=O)CCC3 (centres undefined) | 13.2 µM (inactive) | 16.8 µM (inactive) | 15.4 µM (inactive) | 39.4 µM (inactive) | 29.6 µM (inactive) | 9.46 µM (inactive) | 38.8 µM (inactive) | 10.9 µM (inactive) | 31.6 µM (inactive) | 21.6 µM (inactive) | 36.4 µM (inactive) | 24.3 µM (inactive) | 84.1 µM (inactive) | 44.1 µM (inactive) |  | 38.7 µM (inactive) | 34.9 µM (inactive) | 21.1 µM (inactive) |  | 43.6 µM (inactive)
8 | N=C(N)NCCCC(NC(=O)OCCCCCn1ccc(N)nc1=O)C(=O)O (centres undefined) | > 100 µM (inactive) | > 100 µM (inactive) | > 100 µM (inactive) | > 100 µM (inactive) | > 100 µM (inactive) | > 100 µM (inactive) | > 100 µM (inactive) | > 100 µM (inactive) | > 100 µM (inactive) | > 100 µM (inactive) | > 100 µM (inactive) | > 100 µM (inactive) | > 100 µM (inactive) | > 100 µM (inactive) | > 100 µM (inactive) | > 100 µM (inactive) | > 100 µM (inactive) | > 100 µM (inactive) | > 100 µM (inactive) | > 100 µM (inactive)
9 | COc1ccc2o/c(=N\c3ccc(F)cc3)c(C(N)=O)cc2c1 | > 100 µM (inactive) | > 100 µM (inactive) | > 100 µM (inactive) | > 100 µM (inactive) | 22.8 µM (inactive) | > 100 µM (inactive) | 22.8 µM (inactive) | > 100 µM (inactive) | 17.8 µM (inactive) | 12.6 µM (inactive) | 16.3 µM (inactive) | > 100 µM (inactive) | > 100 µM (inactive) | 79.3 µM (inactive) | 35.3 µM (inactive) | 46.8 µM (inactive) | 30.5 µM (inactive) | > 100 µM (inactive) | 36.6 µM (inactive) | 29.3 µM (inactive)
10 | CC(C)CCNC(=O)c1ccc(CNC(=O)/C=C/c2ccc(-c3ccccc3[N+](=O)[O-])o2)cc1 | 96.8 µM (inactive) | 11.6 µM (inactive) |  | > 100 µM (inactive) | 34.2 µM (inactive) | 32.5 µM (inactive) | 95.7 µM (inactive) | > 100 µM (inactive) | 26.6 µM (inactive) | 25 µM (inactive) | > 100 µM (inactive) | > 100 µM (inactive) | 81.8 µM (inactive) |  | 16 µM (inactive) | 76.7 µM (inactive) | 53.2 µM (inactive) | 89.5 µM (inactive) | 21.9 µM (inactive) | 82.8 µM (inactive)
11 | Nc1ccc2c(=O)cc(-c3ccc(Br)s3)[nH]c2n1 | 1.89 µM (inactive) | 2.41 µM (inactive) | 4.74 µM (inactive) | 2.74 µM (inactive) | 3.02 µM (inactive) | 0.673 µM (active) | > 100 µM (inactive) | 2.33 µM (inactive) | 3.52 µM (inactive) | 2.47 µM (inactive) | 16.8 µM (inactive) | 4.69 µM (inactive) | 11.6 µM (inactive) | 3.85 µM (inactive) | 3.02 µM (inactive) | 2.64 µM (inactive) | 7.16 µM (inactive) | 0.323 µM (active) | 2.15 µM (inactive) | 2.22 µM (inactive)
12 | CC1C(c2ccccc2)O[B-](F)(c2ccccc2)[NH+]1C (centres undefined) | > 100 µM (inactive) | > 100 µM (inactive) | > 100 µM (inactive) | > 100 µM (inactive) | > 100 µM (inactive) |  |  | > 100 µM (inactive) | > 100 µM (inactive) | 37.2 µM (inactive) | > 100 µM (inactive) | > 100 µM (inactive) | > 100 µM (inactive) | > 100 µM (inactive) | > 100 µM (inactive) | > 100 µM (inactive) | > 100 µM (inactive) | > 100 µM (inactive) | > 100 µM (inactive) | > 100 µM (inactive)
13 | C/C=C1\C[C@@H]2C(OC)Nc3cc(O)c(OC)cc3C(=O)N2C1 (some centres undefined) | < 0.01 µM (active) | < 0.01 µM (active) | < 0.01 µM (active) | < 0.01 µM (active) | < 0.01 µM (active) | 0.0173 µM (active) | < 0.01 µM (active) | < 0.01 µM (active) | < 0.01 µM (active) | < 0.01 µM (active) | < 0.01 µM (active) | < 0.01 µM (active) | < 0.01 µM (active) | < 0.01 µM (active) | < 0.01 µM (active) | < 0.01 µM (active) | 0.00179 µM (active) | < 0.01 µM (active) | 0.0223 µM (active) | 
14 | CCc1nc(N)nc(N)c1-c1ccc(NCCN)c([N+](=O)[O-])c1 | 29.6 µM (inactive) | 3.99 µM (inactive) | 6.11 µM (inactive) | 6.53 µM (inactive) | 2.52 µM (inactive) | 17.7 µM (inactive) | 46.7 µM (inactive) | 7.16 µM (inactive) | 7.67 µM (inactive) | 19.7 µM (inactive) | 20.2 µM (inactive) | 4.24 µM (inactive) | 33.9 µM (inactive) | 8.97 µM (inactive) | 6.3 µM (inactive) | > 100 µM (inactive) | 34.9 µM (inactive) | 6.92 µM (inactive) | > 96.8 µM (inactive) | 7.4 µM (inactive)
